Reference: PubChem BioAssay AID1259411 (Chemical Carcinogenesis Research Information System (CCRIS), 2018)
Active and inactive are the calls of the source. How the calls were made is not given here.

Test system: rodent carcinogenicity bioassays, tumor incidence
Assay: CCRIS carcinogenicity studies
Settings: Species: RAT
How it was run: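 NCI-built, expert-reviewed records of carcinogenicity and related test outcomes (mutagenicity, tumor promotion/inhibition) compiled from published and report sources, historical span 1985-2011, not updated.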

Measured: carcinogen call

CC(=O)Nc1ccc2c(c1)Cc1ccccc1-2
active: Strain/Sex: ALBINO/MALE, Route: ORAL, Dose: 0.018, 0.036% IN DIET FOR 90 DAYS, Tumor Site: Type of Lesion: LIVER: HEPATOMA, EAR (DUCT), INTESTINES (SMALL), Tumor Site: Type of Lesion: LIVER: HEPATOMA, EAR (DUCT), INTESTINES (SMALL) active; positive | Strain/Sex: BUFFALO/ MALE, FEMALE, Route: ORAL, Dose: 0.05% IN DIET FOR 23 WK (580 MG/RAT), Tumor Site: Type of Lesion: LIVER: HEPATOMA, EAR (DUCT): CARCINOMA active; positive | Strain/Sex: F344/MALE, Route: ORAL, Dose: 0.06% IN DIET FOR 3 WK, THEN CONTROL DIET FOR 1 WK, REPEATED 3X, Tumor Site: Type of Lesion: TESTES: MESOTHELIOMA, LIVER: HEPATOCELLULAR CARCINOMA, CHOLANGIOCARCINOMA active; positive | Strain/Sex: FEMALE, Route: ORAL, Dose: 0.03% IN DIET, Tumor Site: Type of Lesion: EYE active; positive | Strain/Sex: FEMALE, Route: ORAL, Dose: 1.62 MMOL/KG DIET FOR 8 MO, Tumor Site: Type of Lesion: MAMMARY GLAND, EAR (DUCT), INTESTINES (SMALL), Tumor Site: Type of Lesion: MAMMARY GLAND, EAR (DUCT), INTESTINES (SMALL) active; positive | Strain/Sex: HOLTZMAN/FEMALE, Route: ORAL, Dose: 1.62 MMOL/KG IN DIET, Tumor Site: Type of Lesion: MAMMARY GLAND, EAR (DUCT), INTESTINES (SMALL), Tumor Site: Type of Lesion: MAMMARY GLAND, EAR (DUCT), INTESTINES (SMALL) active; positive | Strain/Sex: HOLTZMAN/MALE, Route: ORAL, Dose: 1.62 MMOL/KG IN DIET, Tumor Site: Type of Lesion: LIVER, EAR (DUCT), INTESTINES (SMALL), Tumor Site: Type of Lesion: LIVER, EAR (DUCT), INTESTINES (SMALL) active; positive | Strain/Sex: LONG-EVANS/ MALE, FEMALE, Route: ORAL, Dose: IN DIET, Tumor Site: Type of Lesion: EAR (AUDITORY CANAL): SQUAMOUS CELL CARCINOMA active; positive | Strain/Sex: MALE, Route: ORAL, Dose: 1.62 MMOL/KG IN DIET FOR 8 MO, Tumor Site: Type of Lesion: LIVER: HEPATOMA, INTESTINES (SMALL), EAR (DUCT), Tumor Site: Type of Lesion: LIVER: HEPATOMA, INTESTINES (SMALL), EAR (DUCT) active; positive | Strain/Sex: PIEBALD/ MALE, FEMALE, Route: ORAL, Dose: 4 MG DAILY IN DIET FOR 25 WK, Tumor Site: Type of Lesion: LIVER: HEPATOMA, EAR (DUCT): CARCINOMA, INTESTINES: CARCINOMA, Tumor Site: Type of Lesion: LIVER: HEPATOMA, EAR (DUCT): CARCINOMA, INTESTINES: CARCINOMA active; positive | Strain/Sex: PIEBALD/FEMALE, Route: ORAL, Dose: 0.03% IN DIET, Tumor Site: Type of Lesion: MAMMARY GLAND: CARCINOMA active; positive | Strain/Sex: PIEBALD/MALE, Route: DERMAL, Dose: IN ACETONE, Tumor Site: Type of Lesion: LIVER: HEPATOMA, INTESTINES: CARCINOMA active; positive | Strain/Sex: SHEFFIELD/ MALE, FEMALE, Route: ORAL, Dose: 4 MG DAILY IN DIET FOR 25 WK, Tumor Site: Type of Lesion: LIVER: HEPATOMA, EAR (DUCT): CARCINOMA, INTESTINES: CARCINOMA, Tumor Site: Type of Lesion: LIVER: HEPATOMA, EAR (DUCT): CARCINOMA, INTESTINES: CARCINOMA active; positive | Strain/Sex: SHERMAN/ MALE, FEMALE, Route: ORAL, Dose: 0.03% IN DIET FOR LIFE, Tumor Site: Type of Lesion: LIVER: CARCINOMA active; positive | Strain/Sex: SPRAGUE-DAWLEY/FEMALE, Route: INTRAPERITONEAL, Dose: 1 MG/0.1 ML 3/WK FOR 4 WK (TOTAL DOSE 0.17 MMOL/RAT), Tumor Site: Type of Lesion: MAMMARY GLAND: ADENOCARCINOMA active; positive | Strain/Sex: SPRAGUE-DAWLEY/FEMALE, Route: ORAL, Dose: 300 MG/KG IN SEMI-PURIFIED OR STOCK DIET, Tumor Site: Type of Lesion: EAR (DUCT): CARCINOMA active; positive | Strain/Sex: STRAIN-CD/FEMALE, Route: ORAL, Dose: 80, 250 PPM IN DIET FOR 78 WK (LOW DOSE) OR 50 WK (HIGH DOSE), Tumor Site: Type of Lesion: LIVER: NEOPLASTIC NODULE, HEPATOCELLULAR CARCINOMA, MAMMARY GLAND: ADENOCARCINOMA active; positive | Strain/Sex: STRAIN-CD/MALE, Route: ORAL, Dose: 80, 250 PPM IN DIET FOR 78 WK (LOW DOSE) OR 50 WK (HIGH DOSE), Tumor Site: Type of Lesion: LIVER: HEPATOCELLULAR CARCINOMA active; positive | Strain/Sex: WISTAR/ MALE, FEMALE, Route: ORAL, Dose: 0.03% IN DIET FOR LIFE, Tumor Site: Type of Lesion: LIVER: CARCINOMA active; positive | Strain/Sex: WISTAR/ MALE, FEMALE, Route: ORAL, Dose: 0.07% IN DIET, Tumor Site: Type of Lesion: LIVER: HEPATOMA active; positive | Strain/Sex: WISTAR/MALE, Route: DERMAL, Dose: IN ACETONE, Tumor Site: Type of Lesion: LIVER: HEPATOMA, INTESTINES: CARCINOMA active; positive
